The source made the active and inactive calls. How the calls were made is not given here.
Experiments:
[1] = test system: Saccharomyces cerevisiae growth inhibition, permissive control; assay: yeast lifespan-shortening chemical project counter-assay, dose-response inhibition of growth under permissive conditions (AID 850);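 further: growth read as optical density after one day of incubation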
[2] = as above; conditions: Saccharomyces cerevisiae growth inhibition, permissive control, measured here: maximum growth inhibition, stronger effect = higher value

| Compound | IC50 [1] | inhibition ([2]; at 50 µM) [%] | other results |
| --- | --- | --- | --- |
| Oc1cccc(/C=N/NC(=S)Nc2cccnc2)c1O | > 100 µM (inactive) | – | inhibition ([2]; at 0.781 µM): 7.13% |
| O=C1c2cccc3cccc(c23)C(=O)N1c1cccnc1 | > 100 µM (inactive) | 27.9 | – |
| CC(C)(C)c1cc(C(c2cccnc2)N2CCN(CCO)CC2)cc(C(C)(C)C)c1O (stereo not given) | 48.7 µM | 53.3 | – |
| O=C(CCSc1nnc(-c2ccncc2)o1)Nc1ccc(Cl)cc1 | 8.46 µM | – | inhibition ([2]; at 12.5 µM): 86.9% |
| COC(=O)Cc1cc(=O)n(-c2nc3ccccc3[nH]2)[nH]1 | 45.1 µM | 64.1 | – |
| O=c1[nH]c2ccccc2c2nc3ccccn3c12 | > 100 µM (inactive) | – | inhibition ([2]; at 25 µM): 18.1% |
| CN1C(=O)c2cccc3c(Cl)ccc(c23)C1=O | > 100 µM (inactive) | 19.1 | – |
| Oc1ccc(COCc2ccccc2)c2cccnc12 | 6.07 µM | 99.4 | – |
| O=c1c2ccccc2nc2c3ccccc3c3nncn3n12 | > 100 µM (inactive) | – | inhibition ([2]; at 6.25 µM): 5.16% |
| OC(CN1CCN(c2ccccn2)CC1)Cn1c2ccc(Cl)cc2c2cc(Cl)ccc21 (stereo not given) | 30.9 µM | 98.9 | – |
| Brc1ccccc1-c1nnc(CSc2nnc3sc4ccccc4n23)o1 | > 100 µM (inactive) | – | inhibition ([2]; at 6.25 µM): 13.3% |
| O=c1cc(-c2ccccc2)n(S(=O)(=O)c2ccccc2)o1 | > 100 µM (inactive) | – | inhibition ([2]; at 0.195 µM): 2.71% |
| c1ccc(Cc2nnc3sc(-c4ccc5c(c4)OCCO5)nn23)cc1 | > 100 µM (inactive) | – | inhibition ([2]; at 1.563 µM): 14.5% |
| Cn1c(C(C#N)C(=O)c2ccco2)nc2ccccc21 (stereo not given) | > 100 µM (inactive) | 17.5 | – |
| O=[N+]([O-])c1cc(/C=N/O)ccc1Sc1ccccc1 | > 100 µM (inactive) | 7.13 | – |
| S=C(NCC1CCCCC1)Nc1ccc(Oc2ccccc2)cc1 | > 100 µM (inactive) | – | inhibition ([2]; at 0.781 µM): 7.72% |
| COc1ccc(-c2[nH]ncc2-c2ccc(Cl)cc2)c(O)c1 | > 100 µM (inactive) | – | inhibition ([2]; at 0.781 µM): 14.4% |
| CCn1c(=O)c(C(=O)Nc2nc3ccccc3[nH]2)c(O)c2ccccc21 | > 100 µM (inactive) | – | inhibition ([2]; at 0.781 µM): 24.2% |
| CCSc1nc(N)nc(-c2cccs2)c1C#N | 35.2 µM | 70.4 | – |
| CCc1oc2ccccc2c1C(=O)c1cc(Br)c(O)c(Br)c1 | 36.1 µM | 87.7 | – |
| Oc1ccc(N=Nc2cccc(Cl)c2)cc1C=Nc1ccc(N2CCOCC2)cc1 | > 100 µM (inactive) | – | inhibition ([2]; at 12.5 µM): 2.01% |
| CC(NC(=O)/C(C#N)=C/c1ccc(Cl)c([N+](=O)[O-])c1)c1ccccc1 (stereo not given) | > 100 µM (inactive) | 15 | – |
| Cc1ccccc1C(=O)O/N=C/c1c(N2CCOCC2)n(C)c2ccccc12 | 50.7 µM | 57.1 | – |
| O=c1cc(-c2ccncc2)oc2ccccc12 | > 100 µM (inactive) | – | inhibition ([2]; at 3.125 µM): 20.9% |
| O=C1CSC(=S)N1c1cccnc1 | > 100 µM (inactive) | 14.8 | – |
| O=C1NC(=S)N(c2ccccc2F)C(=O)/C1=C\c1cccs1 | 13.6 µM | 91.4 | – |
| CCCCCCCCCCCCCCCC[n+]1ccc(C(N)=O)cc1 | 0.545 µM | – | inhibition ([2]; at 25 µM): 100% |

| Compound | IC50 [1] | inhibition ([2]; at 50 µM) [%] | other results |
| --- | --- | --- | --- |
| OC(CNCCC1C=Nc2ccccc21)Cn1c2ccc(Cl)cc2c2cc(Cl)ccc21 (stereo not given) | 18.4 µM | 100 | – |
| Cc1ccc(NN2C(=O)C=C(c3ccc(Cl)cc3)C2=O)cc1 | 9.53 µM | 98 | – |
| COc1ccc(/C=C2/C(=O)ON=C2c2ccccc2)cc1OC | > 100 µM (inactive) | – | inhibition ([2]; at 25 µM): 27.4% |
| Cc1nnc(NC(=O)CSc2nnc(Cc3cccn3C)n2-c2ccccc2)s1 | > 100 µM (inactive) | – | inhibition ([2]; at 0.781 µM): 11.8% |
| C=CCn1c(C)cc(C(=O)CSc2nnc(NCc3ccccc3)s2)c1C | > 100 µM (inactive) | 22.4 | – |
| Cc1ccc2c(c1)C(=NC1CCCCC1)c1cc3ccccc3nc1-2 | > 100 µM (inactive) | – | inhibition ([2]; at 12.5 µM): 22.8% |
| Cc1ccc(-n2c(Cl)c(Cl)nc(Cl)c2=O)cc1 | 14 µM | 102 | – |
| Cc1cc(N2CCN(c3cccc(C)c3C)CC2)nc(-c2ccccc2)n1 | 37.3 µM | 93 | – |
| Cc1nc(Nc2ccc(Cl)c(Cl)c2)sc1C(=O)Nc1ccccc1 | > 100 µM (inactive) | 15.6 | – |
| Cc1ccc(-c2nnc3ccc(SC(C)C(=O)O)nn23)cc1 (stereo not given) | > 100 µM (inactive) | – | inhibition ([2]; at 6.25 µM): 10.5% |
| O=c1oc2ccccc2c(N2CCCC2)c1CN1CCCC1 | > 100 µM (inactive) | – | inhibition ([2]; at 12.5 µM): 11.7% |
| COc1ccc(OC)c(C2CC(=O)N3CN(c4cccc(Cl)c4)CSC3=C2C#N)c1 (stereo not given) | > 100 µM (inactive) | – | inhibition ([2]; at 25 µM): 15.2% |
| CC(N=Cc1cccc(O)c1O)c1ccccc1 (stereo not given) | 9.56 µM | 98 | – |
| O=[N+]([O-])c1ccc(O)c2ncccc12 | 0.483 µM | – | inhibition ([2]; at 12.5 µM): 99.4% |
| O=C1c2ccccc2C(=O)c2c1cccc2N1CCOCC1 | > 100 µM (inactive) | – | inhibition ([2]; at 0.195 µM): 13.5% |
| CC1CCCC2(C1)NC(=S)c1c(sc3c1CCCC3)N2 (stereo not given) | > 100 µM (inactive) | – | inhibition ([2]; at 0.781 µM): 10.2% |
| Cc1ccc(COc2ccc(Br)cc2/C=N/O)cc1 | > 100 µM (inactive) | – | inhibition ([2]; at 0.098 µM): -1.78% |
| Cc1cc2nc(C)n3c4ccccc4nc3n2n1 | 35.3 µM | 63.4 | – |
| Cc1ccc(CNC(=O)CS(=O)Cc2nc(-c3cccs3)oc2C)cc1 (stereo not given) | > 100 µM (inactive) | – | inhibition ([2]; at 0.391 µM): 13.8% |
| CCN1/C(=C/C=C/C=C/c2sc3ccccc3[n+]2CC)Sc2ccccc21 | 11.3 µM | – | inhibition ([2]; at 25 µM): 87.5% |
| Cc1cc(C(=O)COC(=O)c2ccc[nH]c2=O)c(C)n1-c1ccccc1 | 26.9 µM | 67.1 | – |
| CCOC(=O)c1c(N)sc(C(O)(C(F)(F)F)C(F)(F)F)c1-c1ccc(Cl)cc1 | > 100 µM (inactive) | – | inhibition ([2]; at 0.781 µM): 7.92% |
| O=C(CSC1=NCCS1)N1CCN(c2ccc(Cl)cc2)CC1 | > 100 µM (inactive) | 20.7 | – |
| CC1=CC(=O)C=C(C)C1=NOS(=O)(=O)c1ccccc1 | 26.4 µM | – | inhibition ([2]; at 12.5 µM): 62.4% |
| OC(CNCCc1ccc(C(F)(F)F)cc1)COc1ccc2ccccc2c1 (stereo not given) | > 100 µM (inactive) | 20.9 | – |
| Cc1ccc(-c2[nH]nc(N)c2N=Nc2ccccc2C)cc1 | > 100 µM (inactive) | – | inhibition ([2]; at 0.391 µM): 17.6% |
| CCOC(=O)/C(=N\Nc1ccccc1Cl)N1CCN(Cc2ccccc2)CC1 | 26.8 µM | 73.9 | – |

| Compound | IC50 [1] | inhibition ([2]; at 50 µM) [%] | other results |
| --- | --- | --- | --- |
| O=C(O)c1ccccc1C(=O)NNc1ccc(Cl)cc1 | 7.11 µM | 96.5 | – |
| Cc1ccc(-n2cnc3cc(NCc4cccs4)ccc32)cc1 | 45.8 µM | 53.2 | – |
| CN(c1ccccc1)c1ccc(/C=C/[N+](=O)[O-])cc1 | 16.8 µM | 98.4 | – |
| COc1ccc(/C(C)=N/NC(=O)c2ccc(CSc3cccc4cccnc34)cc2)cc1OC | > 100 µM (inactive) | – | inhibition ([2]; at 6.25 µM): 12.5% |
| CCN1/C(=C/c2ccc3ccc(C)cc3[n+]2CC)Sc2ccccc21 | 21.7 µM | 92.9 | – |
| O=[N+]([O-])c1cc(Cc2ccccc2)cc(C=Nc2ccc(N3CCOCC3)cc2)c1O | 15 µM | – | inhibition ([2]; at 25 µM): 82.7% |
| Cc1cc(=O)[nH]c(SCc2nc3ccccc3s2)n1 | > 100 µM (inactive) | – | inhibition ([2]; at 25 µM): 13% |
| COc1cccc(CC(=O)Nc2ccc3nc(C)sc3c2)c1 | 16 µM | 96.5 | – |
| C(=C\c1nc(N2CCCCCC2)c2ccccc2n1)/c1ccccc1 | 39.2 µM | 78.2 | – |
| CC(=O)N1CCN(c2ccc(OC[C@H]3CO[C@](Cn4ccnc4)(c4ccc(Cl)cc4Cl)O3)cc2)CC1 | 4.25 µM | 96 | – |
| CCN1/C(=C(\O)c2ccccc2)C(=O)c2ccccc2S1(=O)=O | > 100 µM (inactive) | – | inhibition ([2]; at 1.563 µM): 19.4% |
| c1ccc(Cc2nnc3sc(-c4ccco4)nn23)cc1 | > 100 µM (inactive) | – | inhibition ([2]; at 25 µM): 4.05% |
| Cc1ccc(-c2cc(-c3ccccc3C)[nH]n2)c(O)c1 | 22.2 µM | 89.4 | – |
| Cc1ccc(CNC(=O)c2ccc(Cn3nc(C)c(Cl)c3C)o2)cc1 | 17.2 µM | 99.8 | – |
| O=C(O)c1ccccc1Nc1ccc([N+](=O)[O-])cc1 | 14.6 µM | 98 | – |
| OC(Cn1cncn1)(c1ccccc1)c1ccccc1 | 6.82 µM | – | inhibition ([2]; at 12.5 µM): 90.3% |
| CCCn1c(C(C)NC(C)=O)nc2ccccc21 (stereo not given) | > 100 µM (inactive) | – | inhibition ([2]; at 12.5 µM): 9.66% |
| O=C1CCN2C=Nc3cccc4ccc1c2c34 | > 100 µM (inactive) | – | inhibition ([2]; at 25 µM): 26% |
| Cc1c(C=O)c2ccccn2c1C(=O)c1ccncc1 | > 100 µM (inactive) | 10.7 | – |
| O=C(O)c1cc2ccc3ccccc3c2oc1=O | 32 µM | 64.3 | – |
| O=C(Nc1cccc(C(F)(F)F)c1)C(Sc1cccc[n+]1[O-])c1ccccc1 (stereo not given) | 31.4 µM | 90.2 | – |
| c1ccc2nc3ccccc3nc2c1 | 44.8 µM | 55.6 | – |
| COc1ccccc1-c1nnc(NC(=O)C(C)SC2=NCCS2)s1 (stereo not given) | > 100 µM (inactive) | – | inhibition ([2]; at 12.5 µM): 16.8% |
| NNC(=O)c1ccc(COc2ccc3c(c2)CCC3)o1 | 15.5 µM | 95.3 | – |
| COc1ccc(-c2cc(C(=O)N3CCN(c4ncccn4)CC3)c3ccccc3n2)c(OC)c1 | > 100 µM (inactive) | – | inhibition ([2]; at 12.5 µM): 23.4% |
| CCc1cc(-c2n[nH]c(C)c2Oc2ccc(C(C)C)cc2)c(O)cc1O | 35 µM | 75.6 | – |
